Data: US7888079B2, “Nε-acyl-L-lysine-specific aminoacylase” (Ajinomoto Co., Inc., priority 2005, dated 2011)
Where two headings read alike, the source gives them in different places.

What was measured:
[1] = system: aminoacylase of the present invention (Nε-acyl-L-lysine-specific aminoacylase); assay: Effect of various inhibitors on the hydrolyzing activity of the aminoacylase; format: biochemical, Streptomyces mobaraensis; details: hydrolysis activity where nothing was added = 100
Protocol: The activity of the enzyme of the present invention can be measured based on a method of measuring Nε-acetyl-L-lysine hydrolysis activity. For example, the activity of the enzyme of the present invention may be measured by incubating the enzyme with a defined concentration of Nε-acetyl-L-lysine as a substrate for 30 minutes at 37° C. (50 mM Tris-HCl buffer, pH 8.0), and assaying the released L-lysine. 1 U (unit) of the enzyme of the present invention is defined as the amount of the enzyme required to hydrolyze 1 micromole of Nε-acetyl-L-lysine per hour when incubated for 30 minutes at 37° C. (50 mM Tris-HCl buffer, pH 8.0) with 4 mM Nε-acetyl-L-lysine as the substrate, and the released L-lysine was assayed by the acidic ninhydrin method.
The activity of the enzyme of the present invention was measured by incubating the enzyme (50 mM Tris-HCl buffer, pH 8.0) for 30 minutes at 37° C. with a defined concentration of Nε-acetyl-L-lysine as the substrate, and assaying the released L-lysine. 1 U (unit) of the enzyme of the present invention is defined as the amount of the enzyme required to hydrolyze 1 micromole of Nε-acetyl-L-lysine per hour at 37° C. for 30 minutes in 50 mM Tris-HCl buffer, pH 8.0 with 4 mM of Nε-acetyl-L-lysine as the substrate, and the released L-lysine was assayed by acidic ninhydrin method.
The effects of various inhibitors on hydrolysis activity were compared by the measurement methods described above using a purified enzyme obtained as in Example 2. In Table 2, the enzyme activity is presented as a relative value (%) given 100 as hydrolysis activity where nothing was added.

[2] = system: enzyme of the present invention (aminoacylase); assay: Reactivity of the enzyme on various N-acetyl-L-amino acids (substrate specificity); format: biochemical, Streptomyces mobaraensis; details: for Specific activity (relative activity): relative to Nε-acetyl-L-Lys = 100%; for Specific activity: 1-hour reaction, 50 mM Tris-HCl buffer pH 8.2, 37° C., ND: below detection limit
Protocol: (§1) The reactivity of the enzyme of the present invention on various N-acetyl-L-amino acids (final concentration 4 mM) was studied to investigate substrate specificity. In Tables 4 and 5 below, the amount (micro mole) of substrate (acetyl-L-amino acid) hydrolyzed per 1 mg of enzyme protein in a 1-hour reaction in 50 mM Tris-HCl buffer (pH 8.2) at 37° C. is given as specific activity.

A. pestifer enzyme [3] = details: values marked * from Chibata et al. (1970); cited from earlier work
S. mobaraensis enzyme = assay: Hydrolysis activity on Nε-acyl-L-lysines with various acyl groups, S. mobaraensis enzyme; format: biochemical, Streptomyces mobaraensis; details: for Specific activity, S. mobaraensis enzyme: 1-hour reaction, 50 mM Tris-HCl buffer pH 8.2, 37° C.
Protocol: as §1
(§2) Substrate specificity was investigated based on hydrolysis activity on Nε-acyl-L-lysines with various acyl groups.

[4] = system: aminoacylase of the present invention (Nε-acyl-L-lysine-specific aminoacylase); assay: Effects of metal ions on hydrolysis activity of enzyme dialyzed against 0-phenanthroline solution; format: biochemical, Streptomyces mobaraensis; details: final concentration 0.1 mM
A. pestifer enzyme [5] = assay: Hydrolysis activity on Nε-acyl-L-lysines with various acyl groups, A. pestifer enzyme; format: biochemical, Achromobacter pestifer
Description: as §2

[6] = hydrolysis activity with nothing added = 100

With `O[C@@H](CS)[C@@H](O)CS` [DTT] the “Relative activity (%)” value ([1]; added concentration 1 mM) was 64.7%.
With `N[C@@H](CCC(=O)N[C@@H](CS)C(=O)NCC(=O)O)C(=O)O` [GSH] the “Relative activity (%)” value ([1]; added concentration 1 mM) was 80.0%.
With `N[C@@H](CS)C(=O)O` [L-cysteine] the “Relative activity (%)” value ([1]; added concentration 1 mM) was 77.6%.
With `CC(=O)N[C@@H](CCCCN)C(=O)O` [Nα-acetyl-L-Lys] the “Specific activity (relative activity)” value [2] was 2.1% and the “Specific activity” value ([2]; substrate 4 mM) was 70 µmol/mg.
In the case of `N[C@@H](CCCCNC(=O)CCl)C(=O)O` [Nε-chloroacetyl-L-lys], the “Specific activity, A. pestifer enzyme” value (A. pestifer enzyme [3]) is given as 5,300* μmol/mg and the “Specific activity, S. mobaraensis enzyme” value (S. mobaraensis enzyme) is given as 1,030 μmol/mg.
For `CC(=O)NCCCC[C@H](N)C(=O)O` [Nε-acetyl-L-Lys], the “Specific activity (relative activity)” value [2] was 100%, the “hydrolysis activity on N-acetyl-L-amino acids (in words)” value ([2]; substrate 4 mM) was “strong hydrolysis activity” and the “Specific activity” value ([2]; substrate 4 mM) was 3370 µmol/mg. The “Specific activity, A. pestifer enzyme” value (A. pestifer enzyme [3]) was 2,700* μmol/mg and the “Specific activity, S. mobaraensis enzyme” value (S. mobaraensis enzyme) was 3,370 μmol/mg.
In the case of `CCCCCCCCCCCC(=O)N[C@@H](CCCCN)C(=O)O` [Nα-lauroyl-L-Lys], the “hydrolysis activity of the enzyme of the present invention (in words)” value (S. mobaraensis enzyme) is reported as “no hydrolysis activity” and the “Specific activity, S. mobaraensis enzyme” value (S. mobaraensis enzyme) is reported as 0 µmol/mg.
With `O=S(=O)([O-])[O-].[Cu+2]` [CuSO4] the “Relative activity (%)” value [4, 6] was 67.2%.
With `[Cl-].[K+]` [KCl] the “Relative activity (%)” value [4, 6] was 110.2%.
With `O=S(=O)([O-])[O-].[Fe+2]` [FeSO4] the “Relative activity (%)” value [4, 6] was 85.3%.
With `O=C(O)c1cc[c]([Hg][Cl])cc1` [PCMB] the “Relative activity (%)” value ([1]; added concentration 1 mM) was 86.1%.
In the case of `[Ca+2].[Cl-].[Cl-]` [CaCl2], the “Relative activity (%)” value [4, 6] is reported as 110.3%.
With `c1cnc2c(c1)ccc1cccnc12` [0-phenanthroline] the “Relative activity (%)” value ([1]; added concentration 1 mM) was 10.3%.
For `[Cl-].[Cl-].[Co+2]` [CoCl2], the “Relative activity (%)” value [4] was 140.8%.
In the case of `O=S(=O)([O-])[O-].[Mn+2]` [MnSO4], the “Relative activity (%)” value [4, 6] is reported as 114.1%.
For `O=S(=O)([O-])[O-].[Mg+2]` [MgSO4], the “Relative activity (%)” value [4, 6] was 121.1%.
With `O=C(O)CN(CCN(CC(=O)O)CC(=O)O)CC(=O)O` [EDTA] the “Relative activity (%)” value ([1]; added concentration 1 mM) was 74.6%.
In the case of `NC(=O)CI` [Iodoacetamide], the “Relative activity (%)” value ([1]; added concentration 1 mM) is reported as 83.1%.
In the case of `OCCS` [β-mercaptoethanol], the “Relative activity (%)” value ([1]; added concentration 10 mM) is reported as 87.5%.
In the case of `N[C@@H](CCCCNC(=O)c1ccccc1)C(=O)O` [Nε-benzoyl-L-Lys], the “Specific activity, A. pestifer enzyme” value (A. pestifer enzyme [3]) is given as 15,000* μmol/mg and the “Specific activity, S. mobaraensis enzyme” value (S. mobaraensis enzyme) is given as 1,380 μmol/mg.
For `CCCCCCCC(=O)NCCCC[C@H](N)C(=O)O` [Nε-octanoyl-L-Lys], the “Specific activity, A. pestifer enzyme” value (A. pestifer enzyme [3]) is given as 12,500* μmol/mg and the “Specific activity, S. mobaraensis enzyme” value (S. mobaraensis enzyme) is given as 570 µmol/mg.
With `CCCCCCCCCCCC(=O)NCCCC[C@H](N)C(=O)O` [Nε-lauroyl-L-Lys] the “hydrolysis activity of the enzyme from A. pestifer (in words)” value (A. pestifer enzyme [5]) was “very little hydrolysis activity”, the “Specific activity, A. pestifer enzyme” value (A. pestifer enzyme [5]; value without literature mark) was 0.4 µmol/mg and the “Specific activity, S. mobaraensis enzyme” value (S. mobaraensis enzyme) was 28 µmol/mg.
With `O=S(=O)([O-])[O-].[Zn+2]` [ZnSO4] the “Relative activity (%)” value [4, 6] was 103.3%.
